Source: patent US20250388604A1, “Compounds and Their Use as PDE4 Activators” (Mironid Limited, priority 2022, published 2025)

System: m-IMCD3 cells
Assay: Inhibition of PGE2-stimulated in vitro cyst formation in m-IMCD3 cells
Type: cell-based, mouse
Conditions: Mus musculus, mIMCD3, 144 h, 3 μM; mean cyst area, 100% for (DMSO + PGE2) and 0% for DMSO control; 6 days of culture; read-out: % Cyst area after incubation with 3 μM test compound
Outline: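 Mean cyst area after 6 days, expressed relative to DMSO+PGE2 (100%) and DMSO alone (0%), from z-stack images. Mouse m-IMCD3 spheroids grew in collagen I/Matrigel gels and received PGE2 (100 nM final) with test compound (0.1% DMSO) starting 18–24 h post-plating, media refreshed at day 2 or 3.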

| SMILES | activity at 3 µM [%] |
| --- | --- |
| COc1cc(F)cc(C#N)c1OCC(=O)N1CCc2nc(N3C4CCC3CNC4)sc2C1 [Example 253, 2-(2-(2-(3,8-diazabicyclo[3.2.1]octan-8-yl)-6,7-dihydrothiazolo[5,4-c]pyridin-5(4H)-yl)-2-oxoethoxy)-5-fluoro-3-methoxybenzonitrile] | -4 |
| N#Cc1ccccc1C(=O)N1CCc2nc(N3C4CCC3CNC4)sc2C1 [Example 213, 2-(2-(3,8-diazabicyclo[3.2.1]octan-8-yl)-4,5,6,7-tetrahydrothiazolo[5,4-c]pyridine-5-carbonyl)benzonitrile] | 17 |
| CCC(C)(C)CC(=O)N1CCc2nc(N3C4CCC3CNC4)sc2C1 [Example 174, 1-(2-(3,8-diazabicyclo[3.2.1]octan-8-yl)-6,7-dihydrothiazolo[5,4-c]pyridin-5(4H)-yl)-3,3-dimethylpentan-1-one] | 3 |
| O=C(CC1CCCC1)N1Cc2sc(N3C4CCC3CNC4)nc2C2(CC2)C1 [Example 265, 1-(2′-(3,8-diazabicyclo[3.2.1]octan-8-yl)-4′H-spiro[cyclopropane-1,7′-thiazolo[5,4-c]pyridin]-5′(6′H)-yl)-2-cyclopentylethan-1-one] | -3 |
| COc1ccccc1C(=O)N1CCc2nc(N3C4CCC3CNC4)sc2C1 [Example 197, (2-(3,8-diazabicyclo[3.2.1]octan-8-yl)-6,7-dihydrothiazolo[5,4-c]pyridin-5(4H)-yl)(2-methoxyphenyl)methanone] | 4 |
| O=C(CC1CCCC1)N1Cc2sc(N3C4CCC3CNC4)nc2C(F)(F)C1 [Example 270, 1-(2-(3,8-diazabicyclo[3.2.1]octan-8-yl)-7,7-difluoro-6,7-dihydrothiazolo[5,4-c]pyridin-5(4H)-yl)-2-cyclopentylethan-1-one] | 2 |
| COC(C(=O)N1CCc2nc(N3C4CCC3CNC4)sc2C1)C1CCCC1 (stereo not drawn) [Example 157, 1-(2-(3,8-diazabicyclo[3.2.1]octan-8-yl)-6,7-dihydrothiazolo[5,4-c]pyridin-5(4H)-yl)-2-cyclopentyl-2-methoxyethan-1-one] | 17 |
| O=C(c1cccc(OC(F)(F)F)c1)N1CCc2nc(N3C4CCC3CNC4)sc2C1 [Example 205, (2-(3,8-diazabicyclo[3.2.1]octan-8-yl)-6,7-dihydrothiazolo[5,4-c]pyridin-5(4H)-yl)(3-(trifluoromethoxy)phenyl)methanone] | 0 |
| O=C(c1nccc2ccccc12)N1CCc2nc(N3C4CCC3CNC4)sc2C1 [Example 186, (2-(3,8-diazabicyclo[3.2.1]octan-8-yl)-6,7-dihydrothiazolo[5,4-c]pyridin-5(4H)-yl)(isoquinolin-1-yl)methanone] | 0 |
| O=C([C@@H](O)C1CCCC1)N1CCc2nc(N3C4CCC3CNC4)sc2C1 [Example 170, (2S)-1-(2-(3,8-diazabicyclo[3.2.1]octan-8-yl)-6,7-dihydrothiazolo[5,4-c]pyridin-5(4H)-yl)-2-cyclopentyl-2-hydroxyethan-1-one] | 5 |
| O=C(C1CC12CCCC2)N1CCc2nc(N3C4CCC3CNC4)sc2C1 (stereo not drawn) [Example 162, (2-(3,8-diazabicyclo[3.2.1]octan-8-yl)-6,7-dihydrothiazolo[5,4-c]pyridin-5(4H)-yl)(spiro[2.4]heptan-1-yl)methanone] | 14 |
| CC(OC1CCCC1)C(=O)N1CCc2nc(N3C4CCC3CNC4)sc2C1 (stereo not drawn) [Example 169, 1-(2-(3,8-diazabicyclo[3.2.1]octan-8-yl)-6,7-dihydrothiazolo[5,4-c]pyridin-5(4H)-yl)-2-(cyclopentyloxy)propan-1-one] | -9 |
| O=C(c1ccccc1C1CC1)N1CCc2nc(N3C4CCC3CNC4)sc2C1 [Example 220, (2-(3,8-diazabicyclo[3.2.1]octan-8-yl)-6,7-dihydrothiazolo[5,4-c]pyridin-5(4H)-yl)(2-cyclopropylphenyl)methanone] | -5 |
| O=C(c1ccccc1OC(F)(F)F)N1CCc2nc(N3C4CCC3CNC4)sc2C1 [Example 207, (2-(3,8-diazabicyclo[3.2.1]octan-8-yl)-6,7-dihydrothiazolo[5,4-c]pyridin-5(4H)-yl)(2-(trifluoromethoxy)phenyl)methanone] | 0 |
| O=C(c1cccc2cccnc12)N1CCc2nc(N3C4CCC3CNC4)sc2C1 [Example 237, (2-(3,8-diazabicyclo[3.2.1]octan-8-yl)-6,7-dihydrothiazolo[5,4-c]pyridin-5(4H)-yl)(quinolin-8-yl)methanone] | 37 |
| O=C(c1ccccn1)N1CCc2nc(N3C4CCC3CNC4)sc2C1 [Example 201, (2-(3,8-diazabicyclo[3.2.1]octan-8-yl)-6,7-dihydrothiazolo[5,4-c]pyridin-5(4H)-yl)(pyridin-2-yl)methanone] | 17 |
| Cc1ccc(-c2nc3c(s2)CN(C(=O)CC2CCCC2)CC3)cn1 [Example 305, 2-cyclopentyl-1-(2-(6-methylpyridin-3-yl)-6,7-dihydrothiazolo[5,4-c]pyridin-5(4H)-yl)ethan-1-one] | 26 |
| O=C(c1cccc2c1OCCC2)N1CCc2nc(N3C4CCC3CNC4)sc2C1 [Example 217, (2-(3,8-diazabicyclo[3.2.1]octan-8-yl)-6,7-dihydrothiazolo[5,4-c]pyridin-5(4H)-yl)(chroman-8-yl)methanone] | -3 |

Same assay, conditions: Mus musculus, mIMCD3, 144 h, 10 μM; mean cyst area, 100% for (DMSO + PGE2) and 0% for DMSO control; 6 days of culture; read-out: % Cyst area after incubation with 10 μM test compound

| SMILES | activity at 10 µM [%] |
| --- | --- |
| CC(C)(C)C(=O)N1CCc2nc(N3C4CCC3CNC4)sc2C1 [Example 65, 1-(2-(3,8-diazabicyclo[3.2.1]octan-8-yl)-6,7-dihydrothiazolo[5,4-c]pyridin-5(4H)-yl)-2,2-dimethylpropan-1-one] | -2 |
| CN1CC2CCC(C1)N2c1nc2c(s1)CN(C(=O)NC1CCCC1)C2 [Example 82, N-cyclopentyl-2-(3-methyl-3,8-diazabicyclo[3.2.1]octan-8-yl)-4,6-dihydro-5H-pyrrolo[3,4-d]thiazole-5-carboxamide] | 2 |
| O=C(CC1CCCC1)N1CCc2nc(N3CCNC[C@H]3CO)sc2C1 [Example 284, (S)-2-cyclopentyl-1-(2-(2-(hydroxymethyl)piperazin-1-yl)-6,7-dihydrothiazolo[5,4-c]pyridin-5(4H)-yl)ethan-1-one] | 19 |
| N#CC(C(=O)N1CCc2nc(N3C4CCC3CNC4)sc2C1)C1CCCC1 (stereo not drawn) [Example 152, 3-(2-(3,8-diazabicyclo[3.2.1]octan-8-yl)-6,7-dihydrothiazolo[5,4-c]pyridin-5(4H)-yl)-2-cyclopentyl-3-oxopropanenitrile] | 4 |
| O=C(CC1CCCC1)N1CCc2nc(N3CCNCC3)sc2C1 [Example 109, 2-cyclopentyl-1-(2-(piperazin-1-yl)-6,7-dihydrothiazolo[5,4-c]pyridin-5(4H)-yl)ethan-1-one] | 6 |
| O=C(CC12CC(C1)C2)N1CCc2nc(N3C4CCC3CNC4)sc2C1 [Example 12, 1-(2-(3,8-diazabicyclo[3.2.1]octan-8-yl)-6,7-dihydrothiazolo[5,4-c]pyridin-5(4H)-yl)-2-(bicyclo[1.1.1]pentan-1-yl)ethan-1-one] | -2 |
| COc1ccccc1OCC(=O)N1CCc2nc(N3C4CCC3CNC4)sc2C1 [Example 138, 1-(2-(3,8-diazabicyclo[3.2.1]octan-8-yl)-6,7-dihydrothiazolo[5,4-c]pyridin-5(4H)-yl)-2-(2-methoxyphenoxy)ethan-1-one] | 0 |
| O=C(NCc1ccc(F)cc1)N1CCc2nc(N3C4CCC3CNC4)sc2C1 [Example 55, 2-(3,8-diazabicyclo[3.2.1]octan-8-yl)-N-(4-fluorobenzyl)-6,7-dihydrothiazolo[5,4-c]pyridine-5(4H)-carboxamide] | 0 |
| O=C(NC1CCC(F)(F)CC1)N1CCn2nc(N3C4CCC3CNC4)cc2C1 [Example 70, 2-(3,8-diazabicyclo[3.2.1]octan-8-yl)-N-(4,4-difluorocyclohexyl)-6,7-dihydropyrazolo[1,5-a]pyrazine-5(4H)-carboxamide] | 7 |
| CN1CC2CCC(C1)N2c1nc2c(s1)CN(C(=O)CC1CCC(F)(F)CC1)C2 [Example 84, 2-(4,4-difluorocyclohexyl)-1-(2-(3-methyl-3,8-diazabicyclo[3.2.1]octan-8-yl)-4,6-dihydro-5H-pyrrolo[3,4-d]thiazol-5-yl)ethan-1-one] | 1 |
| CC1(C)CC(CC(=O)N2CCc3nc(N4C5CCC4CNC5)sc3C2)C1 [Example 119, 1-(2-(3,8-diazabicyclo[3.2.1]octan-8-yl)-6,7-dihydrothiazolo[5,4-c]pyridin-5(4H)-yl)-2-(3,3-dimethylcyclobutyl)ethan-1-one] | -10 |
| CC1(C)CN(C(=O)CC2CCC(F)(F)CC2)Cc2sc(N3C4CCC3CNC4)nc21 [Example 98, 1-(2-(3,8-diazabicyclo[3.2.1]octan-8-yl)-7,7-dimethyl-6,7-dihydrothiazolo[5,4-c]pyridin-5(4H)-yl)-2-(4,4-difluorocyclohexyl)ethan-1-one] | 3 |
| O=C(CC1CCC(F)(F)CC1)N1Cc2nc(N3C4CCC3CNC4)sc2C1 [Example 67, 1-(2-(3,8-diazabicyclo[3.2.1]octan-8-yl)-4,6-dihydro-5H-pyrrolo[3,4-d]thiazol-5-yl)-2-(4,4-difluorocyclohexyl)ethan-1-one] | -4 |
| O=C(N1CCc2nc(N3C4CCC3CNC4)sc2C1)N1CCC2(CCC2)C1 [Example 123, (2-(3,8-diazabicyclo[3.2.1]octan-8-yl)-6,7-dihydrothiazolo[5,4-c]pyridin-5(4H)-yl)(6-azaspiro[3.4]octan-6-yl)methanone] | -4 |
| CC1(NC(=O)N2CCc3nc(N4C5CCC4CNC5)sc3C2)CCCC1 [Example 125, 2-(3,8-diazabicyclo[3.2.1]octan-8-yl)-N-(1-methylcyclopentyl)-6,7-dihydrothiazolo[5,4-c]pyridine-5(4H)-carboxamide] | -11 |
